Common to all, as to test: PDSP off-target binding screen
The target of experiment [1] is T1, 5-HT1A (Homo sapiens, UniProt P08908).
T1 construct: NIMH Psychoactive Drug Screening Program (UNC)
T1 sequence (P08908 1-422): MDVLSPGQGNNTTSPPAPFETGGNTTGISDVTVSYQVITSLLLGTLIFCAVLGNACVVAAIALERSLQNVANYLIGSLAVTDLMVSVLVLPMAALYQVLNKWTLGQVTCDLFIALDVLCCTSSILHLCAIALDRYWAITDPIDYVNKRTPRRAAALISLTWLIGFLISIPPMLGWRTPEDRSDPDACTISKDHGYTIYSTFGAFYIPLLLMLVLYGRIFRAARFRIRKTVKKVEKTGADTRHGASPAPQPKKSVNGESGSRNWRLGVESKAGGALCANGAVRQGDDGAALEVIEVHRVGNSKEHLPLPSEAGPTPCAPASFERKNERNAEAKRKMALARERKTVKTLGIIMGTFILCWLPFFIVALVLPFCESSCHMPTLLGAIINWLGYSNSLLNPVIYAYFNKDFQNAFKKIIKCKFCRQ
Conditions: for inhibition at 10 µM: read-out: Primary screen AVE(%inhib)±SD; for Ki: read-out: Secondary screen Ki. The text has this: (§1) PDSP no. Compound Interactions (Ki, µM)
(§2) 60477 Allopole-A None observed.
(§3) trigger a secondary screen at that receptor.

Experiment [2] addresses T2, 5-HT1D (Homo sapiens, UniProt P28221).
T2 construct: NIMH Psychoactive Drug Screening Program (UNC)
Conditions: for inhibition at 10 µM: read-out: Primary screen AVE(%inhib)±SD; for Ki: read-out: Secondary screen Ki.
Excerpt: as §1, §2, §3

For experiment [3], the target named is T3, 5-HT6 (Homo sapiens, UniProt P50406).
T3 construct: NIMH Psychoactive Drug Screening Program (UNC)
Conditions: for inhibition at 10 µM: read-out: Primary screen AVE(%inhib)±SD; for Ki: read-out: Secondary screen Ki.
Excerpt: as §1, §2, §3

The target in experiment [4] is 5-HT7A (Homo sapiens, UniProt P34969). Conditions: for inhibition at 10 µM: read-out: Primary screen AVE(%inhib)±SD; for Ki: read-out: Secondary screen Ki.
Excerpt: as §1, §2, §3

Experiment [5] concerns the target T4, Alpha2C (Homo sapiens, UniProt P18825).
T4 sequence (P18825 1-462): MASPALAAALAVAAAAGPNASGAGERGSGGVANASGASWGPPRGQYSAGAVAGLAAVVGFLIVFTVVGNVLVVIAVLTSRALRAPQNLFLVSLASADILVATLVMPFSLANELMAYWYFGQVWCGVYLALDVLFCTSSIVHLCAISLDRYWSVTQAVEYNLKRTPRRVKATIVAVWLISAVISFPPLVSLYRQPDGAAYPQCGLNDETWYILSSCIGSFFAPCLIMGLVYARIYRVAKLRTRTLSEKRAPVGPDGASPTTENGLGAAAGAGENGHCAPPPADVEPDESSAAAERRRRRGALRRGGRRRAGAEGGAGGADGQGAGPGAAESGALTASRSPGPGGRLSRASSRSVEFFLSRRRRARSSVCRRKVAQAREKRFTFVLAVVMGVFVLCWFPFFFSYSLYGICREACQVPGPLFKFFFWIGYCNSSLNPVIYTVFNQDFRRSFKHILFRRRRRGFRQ
Conditions: for inhibition at 10 µM: read-out: Primary screen AVE(%inhib)±SD; for Ki: read-out: Secondary screen Ki.
Excerpt: as §1, §2, §3

The target of experiment [6] is Beta1 (Homo sapiens, UniProt P08588). Conditions: for inhibition at 10 µM: read-out: Primary screen AVE(%inhib)±SD; for Ki: read-out: Secondary screen Ki.
Excerpt: as §1, §2, §3

For experiment [7], the target named is T5, D4 (Homo sapiens, UniProt P21917).
T5 sequence (P21917 1-419): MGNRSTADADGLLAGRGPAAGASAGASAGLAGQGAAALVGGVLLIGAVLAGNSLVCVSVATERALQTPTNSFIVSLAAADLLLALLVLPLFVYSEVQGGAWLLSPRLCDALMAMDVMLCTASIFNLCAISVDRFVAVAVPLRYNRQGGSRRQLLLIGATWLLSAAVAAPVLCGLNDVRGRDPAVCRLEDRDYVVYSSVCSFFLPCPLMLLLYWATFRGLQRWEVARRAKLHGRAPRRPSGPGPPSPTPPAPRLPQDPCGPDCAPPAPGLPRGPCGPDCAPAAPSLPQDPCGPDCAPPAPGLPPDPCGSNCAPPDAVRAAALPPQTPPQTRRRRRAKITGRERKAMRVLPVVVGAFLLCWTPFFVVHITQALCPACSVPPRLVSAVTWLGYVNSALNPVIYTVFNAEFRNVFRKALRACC
Conditions: for inhibition at 10 µM: read-out: Primary screen AVE(%inhib)±SD; for Ki: read-out: Secondary screen Ki.
Excerpt: as §1, §2, §3

Experiment [8] addresses H2 (Homo sapiens, UniProt P25021). Conditions: for inhibition at 10 µM: read-out: Primary screen AVE(%inhib)±SD; for Ki: read-out: Secondary screen Ki.
Excerpt: as §1, §2, §3

In experiment [9] the target is T6, M2 (Homo sapiens, UniProt P08172).
T6 sequence (P08172 1-466): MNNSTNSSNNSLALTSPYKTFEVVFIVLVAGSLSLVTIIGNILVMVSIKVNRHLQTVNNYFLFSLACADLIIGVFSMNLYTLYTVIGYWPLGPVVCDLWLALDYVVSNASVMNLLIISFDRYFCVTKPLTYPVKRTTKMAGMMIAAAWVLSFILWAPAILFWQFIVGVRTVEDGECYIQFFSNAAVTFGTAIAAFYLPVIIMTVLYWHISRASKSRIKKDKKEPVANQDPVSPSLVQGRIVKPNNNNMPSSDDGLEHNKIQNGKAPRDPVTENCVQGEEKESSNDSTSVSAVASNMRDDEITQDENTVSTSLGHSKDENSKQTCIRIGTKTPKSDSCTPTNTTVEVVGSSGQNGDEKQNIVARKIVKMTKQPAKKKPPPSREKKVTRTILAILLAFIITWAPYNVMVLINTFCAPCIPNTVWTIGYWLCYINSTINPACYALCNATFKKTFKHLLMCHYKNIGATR
Conditions: for inhibition at 10 µM: read-out: Primary screen AVE(%inhib)±SD; for Ki: read-out: Secondary screen Ki.
Excerpt: as §1, §2, §3

The target of experiment [10] is Sigma 2 (Homo sapiens, UniProt Q5BJF2). Conditions: for inhibition at 10 µM: read-out: Primary screen AVE(%inhib)±SD; for Ki: read-out: Secondary screen Ki.
Excerpt: as §1, §2, §3

Experiment [11] addresses 5-HT2A (Homo sapiens, UniProt P28223). Conditions: for inhibition at 10 µM: read-out: Primary screen AVE(%inhib)±SD.

In general, Ki refers to the dissociation constant of the complex between target and ligand, obtained from inhibition or displacement.

Each structure is given as a SMILES string.

T2 sequence (P28221 whole entry): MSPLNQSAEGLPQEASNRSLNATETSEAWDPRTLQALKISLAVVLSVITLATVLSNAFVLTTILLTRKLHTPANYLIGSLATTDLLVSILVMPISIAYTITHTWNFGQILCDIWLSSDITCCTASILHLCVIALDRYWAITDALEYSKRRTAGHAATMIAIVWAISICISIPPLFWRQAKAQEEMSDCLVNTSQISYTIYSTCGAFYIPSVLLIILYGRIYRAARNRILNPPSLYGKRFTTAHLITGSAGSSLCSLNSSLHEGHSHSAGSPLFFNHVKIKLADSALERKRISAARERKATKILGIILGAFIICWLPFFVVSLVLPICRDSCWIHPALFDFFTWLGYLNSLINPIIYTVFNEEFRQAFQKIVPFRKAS
Sigma 2, sequence (Q5BJF2 whole entry): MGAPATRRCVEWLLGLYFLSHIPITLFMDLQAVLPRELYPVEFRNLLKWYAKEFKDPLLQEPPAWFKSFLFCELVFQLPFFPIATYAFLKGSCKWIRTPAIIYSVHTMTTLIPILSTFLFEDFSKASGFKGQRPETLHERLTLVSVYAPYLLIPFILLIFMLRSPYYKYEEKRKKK
5-HT7A, sequence (P34969 1-445 isoform P34969-2): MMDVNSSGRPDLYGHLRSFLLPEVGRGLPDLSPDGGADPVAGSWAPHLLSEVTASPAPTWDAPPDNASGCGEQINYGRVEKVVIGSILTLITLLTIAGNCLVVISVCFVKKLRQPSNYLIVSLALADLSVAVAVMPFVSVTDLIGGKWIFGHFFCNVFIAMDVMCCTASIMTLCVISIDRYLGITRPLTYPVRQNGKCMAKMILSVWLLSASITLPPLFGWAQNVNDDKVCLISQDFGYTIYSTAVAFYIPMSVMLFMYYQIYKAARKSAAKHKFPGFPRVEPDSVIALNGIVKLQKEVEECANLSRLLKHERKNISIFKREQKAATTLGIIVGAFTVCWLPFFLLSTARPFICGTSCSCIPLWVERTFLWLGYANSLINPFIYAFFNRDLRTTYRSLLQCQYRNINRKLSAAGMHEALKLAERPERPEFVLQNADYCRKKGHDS
T3 sequence (P50406 whole entry): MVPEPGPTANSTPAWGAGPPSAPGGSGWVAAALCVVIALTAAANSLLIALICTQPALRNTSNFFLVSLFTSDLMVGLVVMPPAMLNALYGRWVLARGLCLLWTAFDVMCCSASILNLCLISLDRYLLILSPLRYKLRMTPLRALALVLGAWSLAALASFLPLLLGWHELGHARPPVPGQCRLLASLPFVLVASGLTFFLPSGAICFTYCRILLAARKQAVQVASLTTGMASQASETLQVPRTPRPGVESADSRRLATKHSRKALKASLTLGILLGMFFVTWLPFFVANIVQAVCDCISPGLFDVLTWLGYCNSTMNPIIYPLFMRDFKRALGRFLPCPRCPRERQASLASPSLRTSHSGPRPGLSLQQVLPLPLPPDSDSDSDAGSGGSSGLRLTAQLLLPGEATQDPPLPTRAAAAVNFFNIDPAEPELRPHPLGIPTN
Beta1, sequence (P08588 whole entry): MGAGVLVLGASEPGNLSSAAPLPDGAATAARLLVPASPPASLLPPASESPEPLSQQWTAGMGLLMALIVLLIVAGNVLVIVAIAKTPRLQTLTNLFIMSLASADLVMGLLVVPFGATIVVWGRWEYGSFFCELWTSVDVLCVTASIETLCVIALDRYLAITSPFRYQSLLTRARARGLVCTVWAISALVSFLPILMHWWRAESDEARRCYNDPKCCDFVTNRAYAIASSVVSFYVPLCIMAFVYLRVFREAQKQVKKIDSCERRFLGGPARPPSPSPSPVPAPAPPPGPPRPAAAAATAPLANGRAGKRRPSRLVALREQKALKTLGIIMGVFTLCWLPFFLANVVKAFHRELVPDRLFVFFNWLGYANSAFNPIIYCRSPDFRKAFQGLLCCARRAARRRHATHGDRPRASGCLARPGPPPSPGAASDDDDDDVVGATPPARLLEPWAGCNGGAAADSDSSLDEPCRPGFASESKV
H2, sequence (P25021 whole entry): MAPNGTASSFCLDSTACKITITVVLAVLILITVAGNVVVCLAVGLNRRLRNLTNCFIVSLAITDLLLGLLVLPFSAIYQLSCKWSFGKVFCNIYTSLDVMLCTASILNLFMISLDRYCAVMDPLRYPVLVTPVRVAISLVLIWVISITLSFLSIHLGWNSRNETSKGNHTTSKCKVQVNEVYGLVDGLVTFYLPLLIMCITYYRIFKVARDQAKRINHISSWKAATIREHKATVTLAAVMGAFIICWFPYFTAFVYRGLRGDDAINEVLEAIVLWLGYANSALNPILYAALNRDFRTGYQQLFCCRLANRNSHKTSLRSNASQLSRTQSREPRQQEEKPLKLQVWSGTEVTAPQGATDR
5-HT2A, sequence (P28223 whole entry): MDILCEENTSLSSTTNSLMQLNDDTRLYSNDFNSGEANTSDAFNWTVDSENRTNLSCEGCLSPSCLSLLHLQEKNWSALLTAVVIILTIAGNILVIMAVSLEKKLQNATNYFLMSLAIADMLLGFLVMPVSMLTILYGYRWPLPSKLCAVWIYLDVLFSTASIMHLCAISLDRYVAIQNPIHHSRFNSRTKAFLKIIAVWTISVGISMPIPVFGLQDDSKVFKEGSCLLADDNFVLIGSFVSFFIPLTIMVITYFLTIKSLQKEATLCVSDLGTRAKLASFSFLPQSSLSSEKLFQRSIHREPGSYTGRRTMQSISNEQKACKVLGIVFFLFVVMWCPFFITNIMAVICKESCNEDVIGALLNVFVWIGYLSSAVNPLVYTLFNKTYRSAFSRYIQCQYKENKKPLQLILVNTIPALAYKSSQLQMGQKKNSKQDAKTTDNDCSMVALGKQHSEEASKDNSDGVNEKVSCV

As for `O=c1c2sc(Cl)cc2n2c(=S)[nH]nc2n1CC1CC1` [Allopole-A], the inhibition at 10 µM in [1] was -20 ± 27.4%; in [2], 22.5 ± 25.6%; in [3], -5 ± 11.7%; in experiment [4] it was -88.1 ± 20.8%; in experiment [5], 10.6 ± 4.2%; in [6] it was -6.2 ± 19.4%. Further, the inhibition at 10 µM in experiment [7] was -24.3 ± 4.4%; in experiment [8] it was -27.4 ± 17.1%; in experiment [9], 21.1 ± 19.7%; in [10], 40.6 ± 9.5%; in experiment [11], 37 ± 10.4%. The Ki in experiment [1], in experiment [2], in experiment [3], in experiment [4], in experiment [5] and in experiment [6] was more than 10 µM throughout. Besides, the Ki in experiment [7], in experiment [8], in [9], in experiment [10] and in experiment [11] was more than 10 µM in each case.

For the compound `Cn1cnc([N+](=O)[O-])c1Sc1nnc2n(CC3CC3)c(=O)c3sc(Cl)cc3n12` [Allopole], the inhibition at 10 µM in [1] is -12.8 ± 19.7%; in experiment [2], 32.8 ± 27.1%; in experiment [3] it was 21.9 ± 15.6%; in [4], 14.9 ± 9.9%; in experiment [5], 6.4 ± 7.5%; in experiment [6], 67.3 ± 49.1%. For the same compound, the inhibition at 10 µM is 12.6 ± 4.9% in [7]; -16.4 ± 21.5% in experiment [8]; 9.3 ± 19.3% in [9]; 40.7 ± 5.8% in experiment [10]; 52.4 ± 11.8% in experiment [11]. The Ki in [1], in experiment [2], in [3], in experiment [4], in experiment [5] and in experiment [6] was more than 10 µM throughout. Besides, the inhibition constant (Ki) in experiment [7] was more than 10 µM; in [8], more than 10 µM; in [9], more than 10 µM; in experiment [10] it was more than 10 µM; in [11] it was 9.2 µM.

The record behind these values is publication PMC10629583, “Specific inhibition of an anticancer target, polo-like kinase 1, by allosterically dismantling its mechanism of substrate recognition” (Proceedings of the National Academy of Sciences of the …, 2023).
